≈ marks a conversion by molar mass, not a printed value. Counter-ions that a name gives are not always drawn. Like-named read-outs stand apart in the source and are kept apart here.
Experiments:
C. albicans = test: two-fold serial dilution assay (MIC), C. albicans; type: cell-based, Candida albicans; conditions: for MIC: Candida albicans, read-out: Minimum Inhibitory Concentration, C. Albicans
Description: (§1) Quantitive assay of antimicrobial activity of the inventive compositions against selected test organisms was made using a two-fold serial dilution in Eugonbroth or Mycophil broth. The concentration of pure alkaloids in the initial dilution tube was 50 mcg/ml. Streptomycin sulfate (Nutrional Biochemical) and amphotericin B (Calbiochem "A" grade) at the same concentrations as above were used as standard antibiotics for comparison with the activities of the alkaloids against bacteria and yeast species, respectively. Cultures used in the serial dilution assay included S. aureus, B. subtilis, M. smegmatis, C. albicans, and S. cerevisiae. Readings were taken after incubation times of 24 hours for all organisms except M. smegmatis, which was read at 72 hours. The concentration mcg/ml of the tube of highest dilution which was free from growth was recorded as the minimal inhibitory concentration in Table 3.

S. cerevisiae = test: two-fold serial dilution assay (MIC), S. cerevisiae; type: cell-based; conditions: Saccharomyces cerevisiae, read-out: Minimum Inhibitory Concentration, S. cerevisiae
Description: as §1

S. aureus = test: two-fold serial dilution assay (MIC), S. aureus; type: cell-based; conditions: Staphylococcus aureus; 24 hours; read-out: Minimum Inhibitory Concentration, S. aureus
Description: as §1

Candida albicans = test: agar well diffusion assay, C. albicans; type: cell-based; conditions: read-out: width of the clear zone of inhibition, C. Albicans
Description: (§2) Bacterial test organisms were cultured in Eugonager and Eugonbroth (BBL), and fungi and yeasts were cultured in Mycophil (BBL) agar and broth. Antimicrobial activity was recorded as the width (in millimeters) of the clear zone of inhibition surrounding the agar well.
(§3) Qualitative evaluation of antimicrobial activity of the inventive extracts, fractions, and pure compounds was accomplished using an agar well diffusion assay. As set out hereinbefore, the inventive compositions were tested for activity against the following microorganisms: Staphylococcus aureus ATCC 6538; Escherichia coli ATCC 10536; Mycobacterium smegmatis ATCC 607; Pseudomonas aeruginosa ATCC 15442; Candida albicans ATCC 10321; Saccharomyces cerevisiae ATCC 9763; and Asperigillus niger ATCC 16888. In addition, the compounds of the preferred embodiments were also tested against Bacillus subtilis ATCC 6633. Bacterial test organisms were cultured in Eugonagar and Eugonbroth (BBL), and fungi and yeasts were cultured in Mycophil (BBL) agar and broth.
(§4) Plates for assay were prepared by uniformly seeding sterily, partially cooled, molten agar with dilutions of test organisms grown in broth or suspensions of conidia produced on agar slants (A. niger). The seeded agar medium was dispensed into 100 × 15 mm sterile petri dishes (15 ml per dish). Cylindrical plugs were removed from the solidified agar plates, using a sterile cork borer, to produce wells having a diameter of approximately 11 mm. One hundred microliters of a solution or suspension of an extract, fraction, or pure compound was added to each well. The extracts and fractions were tested as solutions or suspensions in a concentration of 20 mg/ml; pure compounds were tested at 1 mg/ml. When solvents other than water were required to dissolve extracts or compounds, solvent blanks were run against each test organism.
(§5) Plates prepared as described above were incubated as follows: Bacteria were grown at 37° C. for 24 hours, with the exception of M. smegmatis, which grows more slowly and requires incubation at 37° C. for 48 hours, before reading. Fungi or yeast were incubated at 25° C. for 24 hours, before growth was evident.
(§6) Antimicrobial activity was recorded as the width (in mm) of the clear zone of inhibition surrounding the agar well.

[1] = test system: Saccharomyces cerevisiae ATCC 9763; test: agar well diffusion assay, S. cerevisiae; type: cell-based; conditions: read-out: width of the clear zone of inhibition, S. cerevisiae
Description: as §2, §3, §4, §5, §6

B. subtilis = test: two-fold serial dilution assay (MIC), B. subtilis; type: cell-based; conditions: Bacillus subtilis, read-out: Minimum Inhibitory Concentration, R. Subtilis
Description: as §1

[2] = test system: Mycobacterium smegmatis ATCC 607; test: agar well diffusion assay, M. smegmatis; type: cell-based; conditions: Mycolicibacterium smegmatis, read-out: width of the clear zone of inhibition, M. smegmatis
Description: as §2, §3, §4, §5, §6

[3] = test system: Bacillus subtilis ATCC 6633; test: agar well diffusion assay, B. subtilis; type: cell-based; conditions: read-out: width of the clear zone of inhibition, B. subtilis
Description: as §2, §3, §4, §5, §6

test organisms = test: qualitative antimicrobial activity of extracts, fractions and compounds; type: cell-based; conditions: text statement on extracts, fractions, compounds
Description: Qualitative evaluation of antimicrobial activity of the inventive extracts, fractions, and pure compounds was accomplished using an agar well diffusion assay. As set out hereinbefore, the inventive compositions were tested for activity against the following microorganisms: Staphylococcus aureus ATCC 6538; Escherichia coli ATCC 10536; Mycobacterium smegmatis ATCC 607; Pseudomonas aeruginosa ATCC 15442; Candida albicans ATCC 10321; Saccharomyces cerevisiae ATCC 9763; and Asperigillus niger ATCC 16888. […] Bacterial test organisms were cultured in Eugonagar and Eugonbroth (BBL), and fungi and yeasts were cultured in Mycophil (BBL) agar and broth.

[4] = test system: Staphylococcus aureus ATCC 6538; test: agar well diffusion assay, S. aureus; type: cell-based; conditions: read-out: width of the clear zone of inhibition, S. aureus
Description: as §2, §3, §4, §5, §6

M. smegmatis = test: two-fold serial dilution assay (MIC), M. smegmatis; type: cell-based, Mycobacterium smegmatis; conditions: Mycolicibacterium smegmatis, read-out: Minimum Inhibitory Concentration, M. Smegmatis
Description: as §1

[5] = test system: Asperigillus niger ATCC 16888; test: agar well diffusion assay, A. niger; type: cell-based; conditions: Aspergillus niger, read-out: width of the clear zone of inhibition, A. niger
Description: as §2
as §3, with “broth. […]” for “broth.”
Plates prepared as described above were incubated as follows: Bacteria were grown at 37° C. for 24 hours, with the exception of M. smegmatis, which grows more slowly and requires incubation at 37° C. for 48 hours, before reading. […]
as §6

[6] = test system: S. aureus, B. subtilis, M. smegmatis, C. albicans, and S. cerevisiae; test: two-fold serial dilution assay, activity overall against bacteria and yeasts; type: cell-based; conditions: from the data in Table 3
Description: as §1

[7] = 25° C., 24 hours, extracts and fractions 20 mg/ml, pure compounds 1 mg/ml, 100 microliters per well
[8] = ATCC9763, 25° C., 24 hours, pure compounds 1 mg/ml, 100 microliters per well
[9] = ATCC607, 37° C., 48 hours, extracts and fractions 20 mg/ml, pure compounds 1 mg/ml, 100 microliters per well
[10] = ATCC6633, 37° C., 24 hours, pure compounds 1 mg/ml, 100 microliters per well
[11] = ATCC6538, 37° C., 24 hours, extracts and fractions 20 mg/ml, pure compounds 1 mg/ml, 100 microliters per well

Row | SMILES | MIC (C. albicans; 24 h) [µg/mL] | MIC (S. cerevisiae; 24 h) [µg/mL] | MIC (S. aureus) [µg/mL] | zone of inhibition at 1000 µg/mL (Candida albicans; 24 h) [mm] | zone of inhibition at 1000 µg/mL ([1]; ATCC9763, 24 h) [mm] | MIC (B. subtilis; 24 h) [µg/mL] | zone of inhibition at 1000 µg/mL ([2]; ATCC607, 48 h) [mm] | zone of inhibition at 1000 µg/mL ([3]; ATCC6633, 24 h) [mm] | antimicrobial activity (in words) (test organisms) | zone of inhibition at 1000 µg/mL ([4]; ATCC6538, 24 h) [mm] | MIC (M. smegmatis; 72 h) [µg/mL] | zone of inhibition at 1000 µg/mL (Candida albicans; [7]) [mm] | zone of inhibition at 1000 µg/mL [1, 8] [mm] | MIC (B. subtilis; 24 hours) [µg/mL] | zone of inhibition at 1000 µg/mL [2, 9] [mm] | zone of inhibition at 1000 µg/mL [3, 10] [mm] | zone of inhibition at 1000 µg/mL [4, 11] [mm] | MIC (C. albicans; 24 hours) [µg/mL] | MIC (M. smegmatis; 72 hours) [µg/mL] | MIC (S. cerevisiae; 24 hours) [µg/mL] | other results
1 | C[C@@H]1[C@H](O)[C@@H](C)/C=C/C=C/C=C/C=C/C=C/C=C/C=C/[C@H](O[C@@H]2O[C@H](C)[C@@H](O)[C@H](N)[C@@H]2O)C[C@@H]2O[C@](O)(C[C@@H](O)C[C@@H](O)[C@H](O)CC[C@@H](O)C[C@@H](O)CC(=O)O[C@H]1C)C[C@H](O)[C@H]2C(=O)O [amphotocericin B, amphotericin B, reference compound] | 0.78 (≈ 0.844 µM) | 0.78 (≈ 0.844 µM) | – | – | – | – | – | – | – | – | – | – | – | – | – | – | – | – | – | – | –
2 | COc1cc2cc3c4c(cc(OC)c(OC)c4c2cc1OC)CCN3C [dehydroglaucine] | 25 (≈ 70.7 µM) | 50 (≈ 141 µM) | 25 (≈ 70.7 µM) | 6 | 6 | 25 (≈ 70.7 µM) | 8 | 7 | exhibited antimicrobial activity | 4 | 25 (≈ 70.7 µM) | – | – | – | – | – | – | – | – | – | antimicrobial activity (in words) (test organisms; listed as Dehydroglaucine): exhibit all of the antimicrobial activity in that Fraction
3 | C[n+]1ccc2cc3c(c4c2c1C(=O)c1ccccc1-4)OCO3 [liriodenine methiodide] | – | – | 6.2 | – | – | – | – | – | – | – | – | 17 | 15 | 3.1 | 14 | 6 | 6 | 0.78 | 3.1 | 3.1 | zone of inhibition at 1000 µg/mL ([5]; ATCC16888, 25° C., 24 hours, extracts and fractions 20 mg/ml, pure compounds 1 mg/ml, 100 microliters per well): 4 mm; in vitro activity compared with standard antibiotics or other alkaloids [6]: in vitro activity comparable to that of streptomycin sulfate and amphotericin B
4 | O=C1c2ccccc2-c2c3c(cc4ccnc1c24)OCO3 [liriodenine] | 6.2 (≈ 22.5 µM) | 6.2 (≈ 22.5 µM) | 3.1 (≈ 11.3 µM) | 3 | 5 | 0.39 (≈ 1.42 µM) | 11 | 8 | exhibited antimicrobial activity | 5 | 1.56 (≈ 5.67 µM) | – | – | – | – | – | – | – | – | – | antimicrobial activity (in words) (test organisms; listed as Liriodenine): contained all of the antimicrobial activity in this fraction; zone of inhibition at 1000 µg/mL ([5]; ATCC16888, 24 h): 11 mm; in vitro activity compared with standard antibiotics or other alkaloids [6]: in vitro activity comparable to that of streptomycin sulfate and amphotericin B
5 | COc1cc2c(cc1OC)-c1c(OC)c(OC)cc3cc[n+](C)c(c13)C2=O [oxoglaucine methiodide] | – | – | 25 | – | – | – | – | – | – | – | – | 10 | 11 | 25 | 10 | 9 | 9 | 1.56 | 25 | 25 | activity against C. albicans (in words) (C. albicans; from the data in Table 3): particularly active against C. albicans
6 | [H]/N=C(/N)N[C@H]1[C@H](O)[C@@H](O)[C@H](O[C@@H]2O[C@@H](C)[C@](O)(C=O)[C@H]2O[C@@H]2O[C@@H](CO)[C@H](O)[C@@H](O)[C@@H]2NC)[C@@H](N/C(N)=N\[H])[C@@H]1O [streptomycin sulfate, reference compound] | – | – | 3.1 | – | – | 1.56 | – | – | – | – | 0.78 | – | – | – | – | – | – | – | – | – | –
